We go through 22 molecules from ChEMBL document CHEMBL1156016, “Discovery of potent and selective histone deacetylase inhibitors via focused combinatorial libraries of cyclic alpha3beta-tetrapeptides” (J Med Chem, 2009).

One assay concerns MCF7. Nature of the assay: cells. The following applies: Homo sapiens, MCF7, 72 h.
In a further assay the test system is K562. The assay is described as follows: cells. The following applies: Homo sapiens, K562, 72 h.
The target in the next assay is T1, Histone deacetylase 8 (Homo sapiens, UniProt Q9BY41).
T1 sequence (Q9BY41 whole entry): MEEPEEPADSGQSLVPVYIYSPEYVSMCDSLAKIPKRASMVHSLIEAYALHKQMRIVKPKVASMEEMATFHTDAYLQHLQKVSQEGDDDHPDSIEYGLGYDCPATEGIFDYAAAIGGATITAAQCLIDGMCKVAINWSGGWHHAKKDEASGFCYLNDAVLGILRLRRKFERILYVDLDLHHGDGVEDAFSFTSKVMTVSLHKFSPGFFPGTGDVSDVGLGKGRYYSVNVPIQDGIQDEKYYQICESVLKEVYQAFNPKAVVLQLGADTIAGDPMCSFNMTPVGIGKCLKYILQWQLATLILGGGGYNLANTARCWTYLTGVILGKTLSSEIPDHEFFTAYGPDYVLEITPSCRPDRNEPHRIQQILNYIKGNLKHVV

Assay [1] has as its target T2, Protein deacetylase HDAC6 (Homo sapiens, UniProt Q9UBN7).
T2 sequence (Q9UBN7 whole entry): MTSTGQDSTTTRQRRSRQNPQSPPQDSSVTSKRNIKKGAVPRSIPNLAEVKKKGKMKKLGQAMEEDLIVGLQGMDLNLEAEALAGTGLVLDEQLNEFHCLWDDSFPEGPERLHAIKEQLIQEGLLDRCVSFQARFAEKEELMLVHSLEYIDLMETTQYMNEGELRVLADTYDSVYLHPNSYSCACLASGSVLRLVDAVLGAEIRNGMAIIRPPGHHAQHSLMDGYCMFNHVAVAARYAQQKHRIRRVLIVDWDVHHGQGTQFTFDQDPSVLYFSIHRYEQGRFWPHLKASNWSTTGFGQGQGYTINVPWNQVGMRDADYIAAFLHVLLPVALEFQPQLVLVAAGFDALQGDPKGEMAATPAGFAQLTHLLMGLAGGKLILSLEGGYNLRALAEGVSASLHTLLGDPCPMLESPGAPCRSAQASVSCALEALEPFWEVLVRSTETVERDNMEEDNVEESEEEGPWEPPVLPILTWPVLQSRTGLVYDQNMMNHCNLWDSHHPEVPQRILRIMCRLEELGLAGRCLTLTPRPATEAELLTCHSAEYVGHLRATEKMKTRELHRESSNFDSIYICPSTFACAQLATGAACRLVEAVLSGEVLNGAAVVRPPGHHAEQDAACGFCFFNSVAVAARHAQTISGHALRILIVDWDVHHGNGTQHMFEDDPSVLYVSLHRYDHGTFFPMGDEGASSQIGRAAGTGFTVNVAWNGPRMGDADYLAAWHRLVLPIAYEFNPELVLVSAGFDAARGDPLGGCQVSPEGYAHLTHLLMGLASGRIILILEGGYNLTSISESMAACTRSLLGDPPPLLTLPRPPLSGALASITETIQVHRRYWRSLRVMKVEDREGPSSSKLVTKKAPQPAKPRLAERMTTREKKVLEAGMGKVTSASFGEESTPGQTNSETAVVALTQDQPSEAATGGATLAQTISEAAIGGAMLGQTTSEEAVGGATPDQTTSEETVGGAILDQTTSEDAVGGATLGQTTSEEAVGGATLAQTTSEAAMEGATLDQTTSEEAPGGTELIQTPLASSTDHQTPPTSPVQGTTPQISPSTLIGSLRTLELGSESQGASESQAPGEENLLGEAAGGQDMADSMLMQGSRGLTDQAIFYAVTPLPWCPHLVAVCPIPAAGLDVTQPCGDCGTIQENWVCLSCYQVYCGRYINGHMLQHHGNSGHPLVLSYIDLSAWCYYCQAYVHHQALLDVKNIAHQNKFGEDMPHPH
Description: Inhibition of human recombinant HDAC6 after 30 mins by fluorimetric assay

For the next assay, the target named is Histone deacetylase 3 (Homo sapiens, UniProt O15379).
Sequence of Histone deacetylase 3 (O15379 whole entry): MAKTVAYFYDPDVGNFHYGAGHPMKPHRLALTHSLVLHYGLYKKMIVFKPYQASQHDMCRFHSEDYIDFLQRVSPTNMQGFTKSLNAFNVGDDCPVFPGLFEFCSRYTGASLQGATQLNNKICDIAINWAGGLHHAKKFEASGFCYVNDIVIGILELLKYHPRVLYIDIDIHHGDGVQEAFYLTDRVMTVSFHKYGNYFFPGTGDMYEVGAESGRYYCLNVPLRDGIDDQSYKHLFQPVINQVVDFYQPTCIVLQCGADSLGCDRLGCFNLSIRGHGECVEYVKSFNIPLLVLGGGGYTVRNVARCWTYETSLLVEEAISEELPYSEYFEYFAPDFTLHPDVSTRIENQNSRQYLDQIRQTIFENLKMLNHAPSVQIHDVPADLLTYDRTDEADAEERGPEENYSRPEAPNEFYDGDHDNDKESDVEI
The next assay has as its system Jurkat. The assay is described as follows: cells. The following applies: Homo sapiens, 72 h.
The nature of the next assay: cells. The following applies: Homo sapiens, KYO1, 72 h.
Another assay concerns the target Histone deacetylase 1 (Homo sapiens, UniProt Q13547).
Assay [2] deals with Histone deacetylase. The assay is classed as cell-based, Homo sapiens. The following applies: hela.
Description: Inhibition of HDAC in human HeLa cell cytosolic extract after 30 mins by fluorimetric assay
Another assay has as its system HeLa. The assay is described as follows: cells. As to conditions: Homo sapiens, 72 h.
In assay [3] the target is Histone deacetylase. In kind it is cell-based, Homo sapiens. The following applies: hela. The source holds these as a separate data set.
Description: Inhibition of HDAC in human HeLa cell nuclear extract after 30 mins by fluorimetric assay
In assay [4] the target is T3, Protein deacetylase HDAC6 (Homo sapiens) (UniProt Q9UBN7).
T3 sequence (whole entry): T2 sequence (Q9UBN7 whole entry)
Nature of the assay: Inhibition of HDAC6 in human Jurkat cells assessed as acetylated alpha-tubulin level at 0.2 to 20 uM after 24 hrs by Western blotting. The assay is classed as cell-based.

Assay [5] deals with Histone deacetylase (Homo sapiens) (UniProt Q13547+O15379+Q9UBN7+Q92769+Q9UQL6+Q8WUI4+Q9BY41+Q96DB2+P56524+Q9UKV0+Q969S8). The assay is described as follows: Inhibition of class 1 HDAC in human Jurkat cells assessed as acetylated histone H3 level at 0.2 to 20 uM after 24 hrs by Western blotting. The assay is classed as cell-based. A general note: Immunoblotting shows a protein as a band on a membrane.

The source made the active and inactive calls. No cut-off for these calls is given here. Square brackets hold non-standard residues; d marks the D form. Peptide text beside a SMILES is read from it. * marks the point of attachment. Phe(F5) = N[C@@H](Cc1c(F)c(F)c(F)c(F)c1F)C(=O)O; β3hW = N[C@H](CC(=O)O)Cc1c[nH]c2ccccc12; 1Nal = N[C@@H](Cc1cccc2ccccc12)C(=O)O; β3hY = N[C@H](CC(=O)O)Cc1ccc(O)cc1; Asu = N[C@@H](CCCCCC(=O)O)C(=O)O; β3hL = CC(C)C[C@H](N)CC(=O)O; hLys = NCCCCC[C@H](N)C(=O)O; Carboxymethyl = O=C(O)C*; CH2CH2COOH = O=C(O)CC*; Aib = CC(C)(N)C(=O)O; X1 = CCC(=O)CC*; NHOH = ON*

Sequence of Histone deacetylase 1 (Q13547 whole entry): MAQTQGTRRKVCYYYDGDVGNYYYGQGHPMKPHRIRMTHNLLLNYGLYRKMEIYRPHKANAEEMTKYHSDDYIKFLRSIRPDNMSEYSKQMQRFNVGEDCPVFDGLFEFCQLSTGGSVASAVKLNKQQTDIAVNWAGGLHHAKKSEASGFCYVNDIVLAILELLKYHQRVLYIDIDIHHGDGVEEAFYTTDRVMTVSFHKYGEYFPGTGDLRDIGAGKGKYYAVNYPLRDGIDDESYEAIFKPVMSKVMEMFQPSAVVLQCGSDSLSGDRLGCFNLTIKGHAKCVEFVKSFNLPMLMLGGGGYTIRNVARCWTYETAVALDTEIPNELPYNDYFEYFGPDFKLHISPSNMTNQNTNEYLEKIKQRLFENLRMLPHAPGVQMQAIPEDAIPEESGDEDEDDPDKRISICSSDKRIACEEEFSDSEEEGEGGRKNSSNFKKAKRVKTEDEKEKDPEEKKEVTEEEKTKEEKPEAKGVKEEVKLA
Description for Histone deacetylase 1: Inhibition of human recombinant HDAC1 after 30 mins by fluorimetric assay
Description for Histone deacetylase 3: Inhibition of human recombinant HDAC3 after 30 mins by fluorimetric assay
Description for Histone deacetylase 8: Inhibition of human recombinant HDAC8 after 30 mins by fluorimetric assay

`CCC(=O)CCCCC[C@@H]1NC(=O)[C@H](C)NC(=O)C[C@H](CC(C)C)NC(=O)[C@H](Cc2c[nH]c3ccccc23)NC1=O`: the GI50 (commonly the concentration at which growth is held to half of that of the control) with MCF7 was more than 20 µM; in the assay with K562, 2000 nM.

Turning to `CC(=O)NCCCC[C@@H]1NC(=O)C[C@H](CC(C)C)NC(=O)[C@H](Cc2c[nH]c3ccccc23)NC(=O)[C@H](CSCCC(=O)O)NC1=O` (cyclo(C(CH2CH2COOH)W[β3hL]K(Ac))), the IC50 (usually the concentration that inhibits the measured activity by half) is 7.04 µM on Histone deacetylase 8, more than 10 µM in [1] and more than 10000 nM against Histone deacetylase 3.

On to `N=C(N)NCCC[C@@H]1NC(=O)C[C@H](Cc2ccc(O)cc2)NC(=O)[C@H](Cc2cccc3ccccc23)NC(=O)[C@H](CCCCCC(=O)O)NC1=O` (cyclo([Asu][1Nal][β3hY]R)), for which, on Histone deacetylase 8, it took 1.4 µM to reach half-maximal inhibition (IC50).

With `CC(C)C[C@H]1CC(=O)N[C@@H](Cc2ccccc2)C(=O)N[C@@H](CCCCCC(=O)NO)C(=O)N[C@@H](Cc2c[nH]c3ccccc23)C(=O)N1` (cyclo([Asu](NHOH)W[β3hL]F)), the results for the GI50 in the assay with Jurkat, in “cells” and with K562 were 1300 nM, 1900 nM and 1900 nM, respectively. Further, the figures for the IC50 (in assay [1]; at Histone deacetylase 3) were 0.07 µM and 31 nM, respectively.

For `CC(C)C[C@H]1CC(=O)N[C@@H](CCCNC(=N)N)C(=O)N[C@@H](CCCCCC(=O)O)C(=O)N[C@@H](Cc2cccc3ccccc23)C(=O)N1` (cyclo([Asu][1Nal][β3hL]R)), the IC50 on Histone deacetylase 8 is 0.607 µM; in assay [1], 1.4 µM; on Histone deacetylase 1, 178 nM; on Histone deacetylase 3 it was 262 nM.

Consider `CC(C)C[C@H]1CC(=O)N[C@@H](C)C(=O)N[C@@H](CCCCCC(=O)NO)C(=O)N[C@@H](Cc2c[nH]c3ccccc23)C(=O)N1` (cyclo([Asu](NHOH)W[β3hL]A)), for which the GI50 with Jurkat was 1700 nM. That is a single-digit micromolar value.

At Histone deacetylase [2], `CC(C)C[C@H]1CC(=O)N[C@@H](C)C(=O)N[C@@H](CCCCCC(=O)O)C(=O)N[C@@H](Cc2ccccc2)C(=O)N1` (cyclo(A[Asu]F[β3hL])) registered an IC50 of 541 nM. This lies in the sub-micromolar range.

Consider `CCC(=O)CCCCC[C@@H]1NC(=O)[C@H](CCCCNC(C)=O)NC(=O)C[C@H](CC(C)C)NC(=O)[C@H](Cc2c[nH]c3ccccc23)NC1=O`, for which the GI50 is more than 20 µM with HeLa, more than 20000 nM in the assay with Jurkat and more than 20 µM with MCF7.

Molecule `CC(=O)NCCCC[C@@H]1NC(=O)C[C@H](Cc2ccc(O)cc2)NC(=O)[C@H](Cc2cccc3ccccc23)NC(=O)[C@H](CCCCCC(=O)O)NC1=O` (cyclo([1Nal][β3hY]K(Ac)[Asu])) displayed an IC50 in assay [1] of 4.4 µM.

`O=C(O)CCCCC[C@@H]1NC(=O)[C@H](Cc2ccccc2)NC(=O)C[C@H](Cc2c[nH]c3ccccc23)NC(=O)[C@H](Cc2cccc3ccccc23)NC1=O` (cyclo([1Nal][β3hW]F[Asu])): the IC50 was 1040 nM against Histone deacetylase [3]; 8 µM in [1]; 460 nM on Histone deacetylase 1; 1670 nM on Histone deacetylase 3; 1009 nM at Histone deacetylase [2].

Regarding `N=C(N)NCCC[C@@H]1NC(=O)C[C@H](Cc2ccc(O)cc2)NC(=O)[C@H](CC(=O)O)NC(=O)[C@H](CCCCCC(=O)NO)NC1=O` (cyclo([Asu](NHOH)D[β3hY]R)), the results for the GI50 with HeLa, in the assay on Jurkat and in the assay on MCF7 were 9 µM, more than 20000 nM and more than 20 µM, respectively. For the same molecule, in assay [4], the outcome was Active. For the same molecule, the outcome in assay [5] was inactive.

Consider `CCC(=O)CCSC[C@@H]1NC(=O)[C@H](C)NC(=O)C[C@H](CC(C)C)NC(=O)[C@H](Cc2c[nH]c3ccccc23)NC1=O` (cyclo(AC(X1)W[β3hL])), for which the IC50 against Histone deacetylase 8 was more than 10 µM; in assay [1], more than 10 µM; against Histone deacetylase 1 it was more than 10000 nM; against Histone deacetylase 3 it was more than 10000 nM.

In turn, `O=C(O)CCCCC[C@@H]1NC(=O)[C@H]2CCCCN2C(=O)C[C@H](Cc2ccccc2)NC(=O)[C@H](Cc2c[nH]c3ccccc23)NC1=O` yielded an IC50 on Histone deacetylase [2] of 791 nM.

Turning to `CC(C)C[C@H]1CC(=O)N[C@@H](C)C(=O)N[C@@H](CCCCCC(=O)O)C(=O)N[C@@H](Cc2cccc3ccccc23)C(=O)N1` (cyclo([Asu][1Nal][β3hL]A)), the IC50 at Histone deacetylase [3] stood at 205 nM; on Histone deacetylase 1, 200 nM; at Histone deacetylase 3, 990 nM; against Histone deacetylase [2] it was 377 nM.

`CC(C)C[C@H]1CC(=O)N[C@@H](C)C(=O)N[C@@H](CSCCC(=O)O)C(=O)N[C@@H](Cc2c[nH]c3ccccc23)C(=O)N1` (cyclo(C(CH2CH2COOH)W[β3hL]A)): the IC50 against Histone deacetylase 8 was 6.05 µM; in [1], more than 10 µM; against Histone deacetylase 1 it was 4840 nM; against Histone deacetylase 3, 7080 nM.

In assay [1], `CC1(C)NC(=O)C[C@H](Cc2c[nH]c3ccccc23)NC(=O)[C@H](Cc2cccc3ccccc23)NC(=O)[C@H](CCCCCC(=O)O)NC1=O` (cyclo([1Nal][β3hW][Aib][Asu])) gave an IC50 of 3.7 µM.

As for `O=C(O)CCCCC[C@@H]1NC(=O)[C@H](Cc2c(F)c(F)c(F)c(F)c2F)NC(=O)C[C@H](Cc2ccc(O)cc2)NC(=O)[C@H](Cc2cccc3ccccc23)NC1=O` (cyclo([1Nal][β3hY][Phe(F5)][Asu])), the results for the IC50 (against Histone deacetylase 8; in [1]; against Histone deacetylase 1) were 6.7 µM, more than 10 µM and 1000 nM, respectively.

Turning to `CC[C@]1(O)C[C@@H]2CN(CCc3c([nH]c4ccccc34)[C@@](C(=O)OC)(c3cc4c(cc3OC)N(C)[C@H]3[C@@](O)(C(=O)OC)[C@H](OC(C)=O)[C@]5(CC)C=CCN6CC[C@]43[C@@H]65)C2)C1` [VINBLASTINE], the results for the GI50 in “cells” and in the assay on MCF7 were less than 100 nM and 10 µM, respectively.

Turning to `CC(=O)NCCCCC[C@@H]1NC(=O)C[C@H](CC(C)C)NC(=O)[C@H](Cc2cccc3ccccc23)NC(=O)[C@H](CCCCCC(=O)O)NC1=O` (cyclo([1Nal][β3hL][hLys](Ac)[Asu])), the GI50 with HeLa amounted to 18 µM; with Jurkat, 300 nM; in “cells” it was 43000 nM; in the assay on K562 it was 30000 nM. Besides, the IC50 at Histone deacetylase [3] was 17 nM; in assay [1] it was more than 10 µM; against Histone deacetylase 1, 8 nM; on Histone deacetylase 3, 32 nM.

Take `CC(C)C[C@H]1CC(=O)N[C@@H](C)C(=O)N[C@@H](CSCC(=O)O)C(=O)N[C@@H](Cc2c[nH]c3ccccc23)C(=O)N1` (cyclo(C(Carboxymethyl)W[β3hL]A)): the IC50 was 9.7 µM against Histone deacetylase 8, more than 10 µM in assay [1], more than 10000 nM on Histone deacetylase 1 and more than 10000 nM on Histone deacetylase 3.

Regarding `CCC(=O)CCCCC[C@@H]1NC(=O)C[C@H](CC(C)C)NC(=O)[C@H](Cc2c[nH]c3ccccc23)NC(=O)[C@H](CCCCCC(=O)CC)NC1=O`, the IC50 on Histone deacetylase 8 is 1.4 µM; in assay [1], more than 10 µM; against Histone deacetylase 1, 150 nM; on Histone deacetylase 3 it was 260 nM.

For `CC(C)C[C@H]1CC(=O)NC(C)(C)C(=O)N[C@@H](CCCCCC(=O)O)C(=O)N[C@@H](Cc2cccc3ccccc23)C(=O)N1` (cyclo([1Nal][β3hL][Aib][Asu])), the IC50 against Histone deacetylase 8 was found to be 0.87 µM.
